From patent US20150239831A1, “INHIBITORS OF CENTRAL NERVOUS SYSTEM VASOACTIVE INHIBITORY PEPTIDE RECEPTOR 2” (The Trustees Of Columbia University In The City Of New York, priority 2012, published 2015)

Legend:
Assay type in all cases: cell-based
Parameters in all cases: expressed in transfected cells; host or cells: HEK293 cells transfected with VIPR2 in pCDNA3.1 (as described)
VIPR2 [1] = target: T1, VIPR2 (Homo sapiens, UniProt P41587); test: Inhibition of VIP-induced β-arrestin recruitment (% Activity Arrestin)
T1 sequence (P41587 24-438): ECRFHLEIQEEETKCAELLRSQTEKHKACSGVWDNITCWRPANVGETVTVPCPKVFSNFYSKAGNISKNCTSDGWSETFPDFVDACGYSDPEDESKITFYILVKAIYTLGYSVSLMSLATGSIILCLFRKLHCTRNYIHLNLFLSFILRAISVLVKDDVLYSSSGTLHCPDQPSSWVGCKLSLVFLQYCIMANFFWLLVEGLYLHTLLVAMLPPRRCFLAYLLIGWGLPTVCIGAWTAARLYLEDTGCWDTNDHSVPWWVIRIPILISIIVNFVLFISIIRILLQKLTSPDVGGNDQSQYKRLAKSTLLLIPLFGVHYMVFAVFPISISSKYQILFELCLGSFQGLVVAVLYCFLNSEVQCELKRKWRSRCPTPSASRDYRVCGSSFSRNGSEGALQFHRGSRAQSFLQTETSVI
Description: (§1) In a further non-limiting embodiment of the invention, the ability of a compound to inhibit VIPR2 GPCR activity may be tested, for example, using the PathHunter® eXpress β-Arrestin GPCR system (Discoverx Corporation, Fremont, Calif., US), as used by Chu et al., 2010, Molecular Pharmacol. 7795-101. In this assay, β-Arrestin is fused to the “Enzyme Acceptor” (“EA”), an N-terminal deletion mutant of β-gal, and the GPCR of interest is fused to a smaller (42 amino acids), weakly complementing portion of the β-gal enzyme (termed “ProLink™”). In cells that stably express these fusion proteins, the interaction of β-Arrestin and the GPCR following ligand stimulation forces the complementation of the two β-gal fragments resulting in the formation of a functional enzyme that converts substrate to detectable signal. In the absence of an interaction between the GPCR and β-Arrestin, the enzyme activity is low due to the low affinity of the two enzyme fragments. For example, a nucleic acid encoding VIPR2, for example hVIPR2, may be cloned into the ProLink vector (DiscoveRx) for GPCR-ProLink fusion protein production. Parental HEK293 cells that stably express β-arrestin2-β-gal-EA fusion protein (DiscoveRx) may be detached and transiently transfected with the VIPR2-containing vector using Fugene6 transfection reagent in suspension mode. Transfected cells in assay medium may be plated into test plates, for example at 15,000 cells/25 μl/well. After overnight incubation, 500 nl of an inhibitor or test inhibitor may be introduced into the test plate followed by 2 h incubation at 37° C., 5% CO2. Flash detection reagents may be added at 12.5 μl/well. After 5 min to 1 h of room-temperature incubation, the cell plates may be read on CLIPR (PerkinElmer Life and Analytical Sciences)or Acquest (Molecular Devices, Sunnyvale, Calif.) for luminescence signal.
(§2) A series of compounds were prepared using a synthetic method analogous to that set forth in Scheme 1, above, and then tested for their ability to inhibit VIP-induced cAMP elevation and β-arrestin recruitment.
(§3) A series of compounds were prepared using a synthetic method analogous to that set forth in Scheme 1, above, and then tested for their ability to inhibit VIP-induced cAMP elevation and β-arrestin recruitment, as described herein (Discoverx Corporation, Fremont, Calif., US). Compound activities were also tested in a BRET-based assay, as described herein. The results are shown below in Tables 1-4, above.

VIPR2 [2] = target: T1, VIPR2; test: Inhibition of VIP-induced cAMP elevation (% Activity cAMP)
Description: (§4) In a further non-limiting embodiment of the invention, the ability of a compound to inhibit VIPR2 and thereby […] a VIP-induced increase in cAMP may be measured using a Homogeneous Time-Resolved Fluorescence (“HTRF® assay; Cisbio Bioassays) as used in Chu et al., 2010, Molecular Pharmacol. 7795-101. In a method as used in Chu et al., 2010, Molecular Pharmacol. 7795-101, HEK293 cells may be transfected with nucleic acid encoding VIPR2, for example human VIPR2 (“hVIPR2”), for example comprised in a vector such as pCDNA3.1 vector. Successful transformants may then be selected, for example using 800 μg/ml G418. Clonal stable cell lines may then be generated by limited dilution to single cells and then may be clonally expanded and tested for VIP -dependent cAMP response. For the cAMP assay, about 3000-15,000 cells (in about 4-25 μl) may be placed in a well of an assay plate. The next day, inhibitor or test inhibitor and VIP may be added in a volume about 1-2 percent of the initial volume. Assay plates may then be returned to a cell incubator for 30 min before addition of a one-half volume of cAMP conjugate and, relative to the amount of cAMP conjugate, an equal volume of anti-cAMP conjugate (Cisbio). After at least 1 h of room-temperature incubation, HTRF signal may be read, for example using Viewlux or EnVision (PerkinElmer Life and Analytical Sciences, Waltham, Mass.). The ratio of […] at 665 nm and 620 nm times 10,000 may be calculated and plotted.
as §2, §3

VIPR2 [3] = target: T1, VIPR2; test: % Activity: inhibition of VIP-induced cAMP elevation and β-arrestin recruitment (Table 2)
Description: as §4, §1, §3

| SMILES | inhibition at 0.5 µM (VIPR2 [1]; Batch 1) [%] | inhibition at 1 µM (VIPR2 [1]; Batch 1) [%] | inhibition at 5 µM (VIPR2 [1]; Batch 1) [%] | inhibition at 0.5 µM (VIPR2 [2]; Batch 1) [%] | inhibition at 1 µM (VIPR2 [2]; Batch 1) [%] | inhibition at 5 µM (VIPR2 [2]; Batch 1) [%] | % Activity (VIPR2 [3]) [%] | inhibition at 0.5 µM (VIPR2 [1]; Batch 2) [%] | inhibition at 0.5 µM (VIPR2 [1]; Batch 3) [%] | inhibition at 1 µM (VIPR2 [1]; Batch 2) [%] | inhibition at 1 µM (VIPR2 [1]; Batch 3) [%] | inhibition at 5 µM (VIPR2 [1]; Batch 2) [%] | inhibition at 5 µM (VIPR2 [1]; Batch 3) [%] | inhibition at 0.5 µM (VIPR2 [2]; Batch 2) [%] | inhibition at 0.5 µM (VIPR2 [2]; Batch 3) [%] | inhibition at 1 µM (VIPR2 [2]; Batch 2) [%] | inhibition at 1 µM (VIPR2 [2]; Batch 3) [%] | inhibition at 5 µM (VIPR2 [2]; Batch 2) [%] | inhibition at 5 µM (VIPR2 [2]; Batch 3) [%] |
| --- | --- | --- | --- | --- | --- | --- | --- | --- | --- | --- | --- | --- | --- | --- | --- | --- | --- | --- | --- |
| CC(C)(C)c1ccc(S(=O)(=O)NC[C@@H](O)C[C@@H](Cc2ccccc2)C(=O)N[C@H]2c3ccccc3C[C@H]2O)cc1 [A, reference compound] | 0 | 18.1 | 56.7 | 9.7 | 13 | 72.1 | – | – | – | – | – | – | – | – | – | – | – | – | – |
| O=C(NC[C@@H](O)C[C@@H](Cc1ccccc1)C(=O)N[C@H]1c2ccccc2C[C@H]1O)c1ccc2ccccc2c1 [B] | -2.9 | 11.1 | 9.7 | 13.2 | 16.3 | 23.5 | 16.6 | – | – | – | – | – | – | – | – | – | – | – | – |
| O=C(NC[C@@H](O)C[C@@H](Cc1ccccc1)C(=O)N[C@H]1c2ccccc2C[C@H]1O)c1ccco1 [Compound A2] | 30.3 | 27.7 | 33.3 | 20.8 | 22.5 | 19.1 | 26.2 | – | – | – | – | – | – | – | – | – | – | – | – |
| Cc1cc(S(=O)(=O)NC[C@@H](O)C[C@@H](Cc2ccccc2)C(=O)N[C@H]2c3ccccc3C[C@H]2O)c(C)cc1Cl [Compound A3] | 17.6 | 30.2 | 0.6 | 20.6 | 21.6 | 41.1 | 20.85 | – | – | – | – | – | – | – | – | – | – | – | – |
| O=C(NC[C@@H](O)C[C@@H](Cc1ccccc1)C(=O)N[C@H]1c2ccccc2C[C@H]1O)C1CCCCCC1 [Compound A8] | 24.4 | 16.4 | 10.5 | 18.4 | 17 | 17 | 13.75 | – | – | – | – | – | – | – | – | – | – | – | – |
| CC(C)CS(=O)(=O)NC[C@@H](O)C[C@@H](Cc1ccccc1)C(=O)N[C@H]1c2ccccc2C[C@H]1O [Compound A11] | 7.1 | 3.2 | 20 | 13.3 | 15.6 | 22.2 | 21.1 | – | – | – | – | – | – | – | – | – | – | – | – |
| O=C(CCCCBr)NC[C@@H](O)C[C@@H](Cc1ccccc1)C(=O)N[C@H]1c2ccccc2C[C@H]1O [Compound A15] | 1.7 | -28.8 | -10.6 | 11.7 | 12.9 | 9.4 | −0.6 | – | – | – | – | – | – | – | – | – | – | – | – |
| O=C(NC[C@@H](O)C[C@@H](Cc1ccccc1)C(=O)N[C@H]1c2ccccc2C[C@H]1O)c1cccnc1 [Compound A16] | -6.8 | -5.7 | -6.3 | 15.2 | 13.5 | 16.4 | 5.05 | – | – | – | – | – | – | – | – | – | – | – | – |
| O=C(NC[C@@H](O)C[C@@H](Cc1ccccc1)C(=O)N[C@H]1c2ccccc2C[C@H]1O)c1ccccn1 [Compound A17] | 6.1 | 32.7 | 5.5 | 14.9 | 17.7 | 20.3 | 12.9 | – | – | – | – | – | – | – | – | – | – | – | – |
| O=C(NC[C@@H](O)C[C@@H](Cc1ccccc1)C(=O)N[C@H]1c2ccccc2C[C@H]1O)c1ccncc1 [Compound A18] | -39.7 | 10.9 | -8.8 | 14.2 | 19.2 | 21 | 6.1 | – | – | – | – | – | – | – | – | – | – | – | – |
| O=C(N[C@H]1c2ccccc2C[C@H]1O)[C@H](Cc1ccccc1)C[C@H](O)CNS(=O)(=O)c1ccc([N+](=O)[O-])cc1 [Compound A27, reference compound] | 37.7 | 74.6 | 88.7 | 42.6 | 71.3 | 99.1 | – | 15.6 | 2.6 | 38.6 | -2.6 | 92 | 29.3 | 38.7 | 74.3 | 70.9 | 86.1 | 100 | 97.8 |

Now from value to compound:

| inhibition at 0.5 µM (VIPR2 [1]; Batch 1) [%] | inhibition at 1 µM (VIPR2 [1]; Batch 1) [%] | inhibition at 5 µM (VIPR2 [1]; Batch 1) [%] | inhibition at 0.5 µM (VIPR2 [2]; Batch 1) [%] | inhibition at 1 µM (VIPR2 [2]; Batch 1) [%] | inhibition at 5 µM (VIPR2 [2]; Batch 1) [%] | % Activity (VIPR2 [3]) [%] | inhibition at 0.5 µM (VIPR2 [1]; Batch 2) [%] | inhibition at 0.5 µM (VIPR2 [1]; Batch 3) [%] | inhibition at 1 µM (VIPR2 [1]; Batch 2) [%] | inhibition at 1 µM (VIPR2 [1]; Batch 3) [%] | inhibition at 5 µM (VIPR2 [1]; Batch 2) [%] | inhibition at 5 µM (VIPR2 [1]; Batch 3) [%] | inhibition at 0.5 µM (VIPR2 [2]; Batch 2) [%] | inhibition at 0.5 µM (VIPR2 [2]; Batch 3) [%] | inhibition at 1 µM (VIPR2 [2]; Batch 2) [%] | inhibition at 1 µM (VIPR2 [2]; Batch 3) [%] | inhibition at 5 µM (VIPR2 [2]; Batch 2) [%] | inhibition at 5 µM (VIPR2 [2]; Batch 3) [%] | SMILES |
| --- | --- | --- | --- | --- | --- | --- | --- | --- | --- | --- | --- | --- | --- | --- | --- | --- | --- | --- | --- |
| -3.8 | 37 | 29.1 | 21 | 21.1 | 24 | 26.55 | – | – | – | – | – | – | – | – | – | – | – | – | O=C(NC[C@@H](O)C[C@@H](Cc1ccccc1)C(=O)N[C@H]1c2ccccc2C[C@H]1O)C1CC1 [Compound A1] |
| 17.3 | 31.6 | 23.4 | 21.4 | 21.9 | 18.5 | 20.95 | – | – | – | – | – | – | – | – | – | – | – | – | CS(=O)(=O)NC[C@@H](O)C[C@@H](Cc1ccccc1)C(=O)N[C@H]1c2ccccc2C[C@H]1O [Compound A5] |
| 9.5 | 17.4 | 20 | 18.4 | 18.3 | 19.6 | 19.8 | – | – | – | – | – | – | – | – | – | – | – | – | O=C(NC[C@@H](O)C[C@@H](Cc1ccccc1)C(=O)N[C@H]1c2ccccc2C[C@H]1O)C(Cl)Cl [Compound A6] |
| 9.9 | 23.7 | 17.5 | 18.4 | 19.2 | 15.6 | 16.55 | – | – | – | – | – | – | – | – | – | – | – | – | O=C(CCl)NC[C@@H](O)C[C@@H](Cc1ccccc1)C(=O)N[C@H]1c2ccccc2C[C@H]1O [Compound A7] |
| -11.8 | -10.7 | -16.3 | 0.7 | 2.6 | -0.9 | −8.6 | – | – | – | – | – | – | – | – | – | – | – | – | CC(C)C(=O)NC[C@@H](O)C[C@@H](Cc1ccccc1)C(=O)N[C@H]1c2ccccc2C[C@H]1O [Compound A13] |
